# In ChEMBL document CHEMBL6182865, “Discovery of potent free fatty acid receptor 1 full agonists with a novel scaffold bearing conjugated double bond linker” (Bioorg Med Chem, 2025):
# Activity calls are given as the source filed them. The rule behind the calls is not given here.
# What was measured:
# [1] = biological target: T1, Free fatty acid receptor 1 (Homo sapiens, UniProt O14842); experiment: Agonist activity at GPR40 (unknown origin) expressed in HEK293 cells assessed as intracellular cAMP level incubated for 30 mins by LANCE Ultra cAMP kit based multiplate reader analysis; format: functional, cell-based
# T1 sequence (O14842 whole entry): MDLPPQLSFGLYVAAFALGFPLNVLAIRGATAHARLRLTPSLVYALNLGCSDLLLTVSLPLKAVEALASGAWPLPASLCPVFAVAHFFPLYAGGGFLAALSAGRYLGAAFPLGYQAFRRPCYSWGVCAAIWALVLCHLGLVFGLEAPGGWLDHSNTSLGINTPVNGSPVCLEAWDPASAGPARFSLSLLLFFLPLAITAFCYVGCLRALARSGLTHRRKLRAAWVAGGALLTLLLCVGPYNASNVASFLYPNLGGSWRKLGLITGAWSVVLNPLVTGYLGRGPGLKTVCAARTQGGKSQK
# [2] = biological target: T1, Free fatty acid receptor 1; experiment: Agonist activity at GPR40 (unknown origin) expressed in HEK293 cells assessed as intracellular inositol phosphate accumulation incubated for 30 mins by IP-one HTRF analysis; format: functional, cell-based
# Mus musculus [3] = experiment: Hypoglycemic effect in male po dosed C57BL/6 mouse preadministered with compound for 60 mins followed by glucose administration at 0 hrs and measured up to 90 mins by oral glucose tolerance test; format: functional, organism-based; details: dose 3-30 mg/kg, time <= 150.0 min
# Mus musculus [4] = experiment: Hypoglycemic effect in male C57BL/6 mouse assessed as reduction in blood glucose level at 10 mg/kg, po preadministered with compound for 60 mins followed by glucose administration at 0 hrs and measured up to 90 mins by oral glucose tolerance test; format: functional, organism-based; details: time <= […] min
# Mus musculus [5] = experiment: Hypoglycemic effect in male C57BL/6 mouse assessed as reduction in blood glucose level at 30 mg/kg, po preadministered with compound for 60 mins followed by glucose administration at 0 hrs and measured up to 90 mins by oral glucose tolerance test; format: functional, organism-based; details: time <= 150.0 min
# Mus musculus [6] = experiment: Hypoglycemic effect in male C57BL/6 mouse assessed as reduction in blood glucose level at 3 mg/kg, po preadministered with compound for 60 mins followed by glucose administration at 0 hrs and measured up to 90 mins by oral glucose tolerance test; format: functional, organism-based; details: time <= 150.0 min
# [7] = biological target: T1, Free fatty acid receptor 1; experiment: Partial agonist activity at GPR40 (unknown origin) expressed in HEK293 cells assessed as intracellular inositol phosphate accumulation by measuring maximum efficacy incubated for 30 mins by IP-one HTRF analysis relative to control; format: functional, cell-based; details: filed as partial agonist
Structure (SMILES),EC50 [1] [µM],EC50 [2] [µM],also measured
COc1ccc(OCCC(C)(C)C)c(/C=C(C)/C=C/COc2cccc([C@H](C3CC3)[C@@](C)(F)C(=O)O)c2)c1,0.261,0.00323,Activity (Mus musculus [3]): Dose-dependent-effect; Activity (Mus musculus [4]): Active; Activity (Mus musculus [5]): Active; Compound Showed Better Effect Compared With Standard Drug(Sco-267)
CCCOc1ccc(OC)cc1/C=C(C)/C=C/COc1cccc(C(CC(=O)O)C2CC2)c1 (stereo not drawn),> 10,0.364,
COc1ccc(F)c(/C=C/C=C/COc2cccc(C(CC(=O)O)C3CC3)c2)c1 (stereo not drawn),> 10,1.77,
COc1ccc(F)c(CCCOc2cccc(C(CC(=O)O)C3CC3)c2)c1 (stereo not drawn),> 10,> 10,
COc1ccc(C(=O)N(CC(C)(C)C)c2cccc(C)n2)c(N2CCC(COc3cc([C@@H](CC(=O)O)C4CC4)ccn3)CC2)c1,0.0879,0.00111,Activity (Mus musculus [6]): Active
COc1ccc(OCc2ccccc2)c(/C=C(C)/C=C/COc2cccc(C(CC(=O)O)C3CC3)c2)c1 (stereo not drawn),> 10,0.204,
COc1ccc(F)c(CCCCOc2cccc(C(CC(=O)O)C3CC3)c2)c1 (stereo not drawn),> 10,6.7,
COc1ccc(OC)c(/C=C(C)/C=C/COc2cccc(C(CC(=O)O)C3CC3)c2)c1 (stereo not drawn),> 10,0.894,
COc1ccc(OCCCC(C)C)c(/C=C(C)/C=C/COc2cccc(C(CC(=O)O)C3CC3)c2)c1 (stereo not drawn),6.87,0.134,
COc1ccc(OCCC(C)(C)C)c(/C=C(C)/C=C/COc2cccc([C@H](C3CC3)[C@](C)(F)C(=O)O)c2)c1,> 10,1.05,
COc1cc(/C=C(C)/C=C/COc2cccc(C(CC(=O)O)C3CC3)c2)cc(OCCC(C)(C)C)c1 (stereo not drawn),> 10,0.943,
COc1ccc(OCC2CC2)c(/C=C(C)/C=C/COc2cccc(C(CC(=O)O)C3CC3)c2)c1 (stereo not drawn),> 10,0.367,
COc1ccc(F)c(CCCCCCOc2cccc(C(CC(=O)O)C3CC3)c2)c1 (stereo not drawn),> 10,> 10,
COc1cc(/C=C(C)/C=C/COc2cccc(C(CC(=O)O)C3CC3)c2)cc(OCc2ccc(Cl)cc2F)c1 (stereo not drawn),> 10,1.36,
Cc1cc(OCCCS(C)(=O)=O)cc(C)c1-c1cccc(COc2ccc3c(c2)OC[C@H]3CC(=O)O)c1,,,Emax [7]: 77.8%
